From publication PMC3341351, “Down-Regulation of GABAA Receptor via Promiscuity with the Vasoactive Peptide Urotensin II Receptor. Potential Involvement in Astrocyte Plasticity” (PLoS ONE, 2012)

Assays:
[1] = test system: α2β3γ1 GABAAR co-expressed with human UT; assay: Patch-clamp of Iso-evoked current in CHO-UT expressing α2β3γ1 GABAAR; type: cell-based; conditions: hUII 10^−13 to 10^−7 M; Iso 10^−4 M, 2 s; −60 mV
Description: CHO-K1 cell lines were obtained from American Type Culture Collection (Manassas, VA, USA). The human UT stable CHO (CHO-UT) was generously provided by Dr Christophe Dubessy (Inserm, Rouen University, France) et generated by CHO electroporation with 20 µg pIRES-neo2-UT DNA and 500 µg sterile sonicated salmon sperm DNA using the EasyJect One electroporation system (Equibio, Angleur, Belgium), followed by repetitive rounds of limiting dilution of cells in G-418 (400 µg/ml) for selection. Normal or stable CHO was grown in Ham-F12 medium supplemented with 10% FBS, 1% antibiotic-antimicotic solution and 2 mM glutamine, at 37°C in a humidified incubator with an atmosphere of 5% CO2. The stable CHO-UT medium was supplemented with the antibiotic G-418 (40 µg/ml).
For transfection, cells were trypsinized (0.05%), triturated in HamF-12 containing 10% FBS media, pelleted by centrifugation, resuspended in 100 µl solution V for nucleofection by an Amaxa Nucleofector Device (Köln, Germany; set to program U-016). Experiments were performed on normal CHO or on the stable CHO-UT cells and transiently transfected with combinations of cDNA encoding α2β3γ2, α2β3γ1, α2β1γ2, α2β3γ1, α2β3, β3γ2 (4 µg of cDNA total/transfection) GABAAR subunits. Cells were seeded on 14-mm poly-L-lysine-coated glass bottom insert dishes at 5×10^5 cells in a volume of 0.5 ml/dish. […]

[2] = target: T1, α2β3γ2 GABAAR co-expressed with human UT (Homo sapiens, UniProt Q9UKP6); assay: Patch-clamp of Iso-evoked current in CHO-UT co-expressing α2β3γ2 GABAAR (CHO-UT-GABAAR); type: cell-based
T1 construct: expressed in transfected cells; host or cells: CHO-K1 stably expressing human UT (pIRES-neo2-UT), transiently nucleofected with GABAAR subunit cDNAs
T1 sequence (Q9UKP6 1-389): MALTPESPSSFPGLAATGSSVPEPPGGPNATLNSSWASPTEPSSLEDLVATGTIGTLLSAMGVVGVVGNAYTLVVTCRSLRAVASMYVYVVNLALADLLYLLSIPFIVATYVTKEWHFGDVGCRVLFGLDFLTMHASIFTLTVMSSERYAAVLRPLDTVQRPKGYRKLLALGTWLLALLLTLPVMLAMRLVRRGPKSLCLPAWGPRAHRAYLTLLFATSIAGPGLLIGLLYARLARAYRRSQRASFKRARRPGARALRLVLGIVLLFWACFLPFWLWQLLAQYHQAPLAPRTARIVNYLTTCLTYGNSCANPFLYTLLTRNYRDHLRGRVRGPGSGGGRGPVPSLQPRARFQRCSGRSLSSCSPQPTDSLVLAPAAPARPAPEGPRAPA

Row | Compound | Inhibitory effect on Iso-evoked current, α2β3γ1 [1] | Apparent desensitization of Iso-evoked current ([2]; Iso 10^−4 M continuous ejection, control (Iso alone) or with hUII 10^−8 M) | Chloride reversal potential (EqCl^−) ([2]; I–V relationship, Iso 10^−4 M without (control) or with hUII 10^−8 M) | Mean time constant of recovery from desensitization (50% receptors) ([2]; after long Iso exposure (30 s), control (Iso alone) or with hUII)
1 | ETPDCFWKYCV (disulfide) [hUII, human urotensin II, synthesized by solid phase methodology] | less effective | – | – | –
2 | O=C(O)C1=CCNCC1 [Iso, isoguvacine] | – | 59% | 4.84 mV | 16.2 s
